Assay results taken from patent publication US7307084B2, “Cyclic benzimidazoles” (Altana Pharma AG, priority 2003, dated 2007).

Test system: not given
Experiment: not given
Settings: not given

Compared with `COCn1c(C)nc2c3c(c(C(=O)N(C)C)cc21)CCC(c1ccccc1)O3` (centres unmarked) [Example 22, 3Methoxymethyl-2-methyl-8-phenyl-3,6,7,8-tetrahydro-chromeno[7,8-d]imidazole-5-carboxylic Acid Dimethylamide], `CC(C)c1nc2c3c(c(C(=O)N(C)C)cc2n1C)CCC(c1ccccc1)O3` (centres unmarked) [Example 9, 2-Isopropyl-3-methyl-8-phenyl-3,6,7,8-tetrahydro-chromeno[7,8-d]imidazole-5-carboxylic Acid Dimethylamide] is lower in melting point: 213 to 215 °C for the first, 179 to 180 °C for the second.

First: CCCNC(=O)c1cc2c(nc(C)n2C)c2c1CCC(c1ccccc1)O2 (centres unmarked) [Example 19, 2,3Dimethyl-8-phenyl-3,6,7,8-tetrahydro-chromeno[7,8-d]imidazole-5-carboxylic Acid Propyl-amide]
Second: Cc1nc2c3c(c(C(=O)NCCO)cc2n1C)CCC(c1ccccc1)O3 (centres unmarked) [Example 5, 2,3 Dimethyl-8-phenyl-3,6,7,8-tetrahydro-chromeno[7,8-d]imidazole-5-carboxylic Acid (2-Hydroxy-ethyl)-amide]
The melting point of the first is higher: 273 °C for the first, 228 to 229 °C for the second.

Compared with `CCOC(=O)c1cc2c(nc(C)n2C)c2c1CCC(c1ccccc1)O2` (centres unmarked) [Example 15, 2,3-Dimethyl-8-phenyl-3,6,7,8-tetrahydro-chromeno[7,8-d]imidazole-5-carboxylic Acid Ethyl Ester], `Cc1nc2c3c(c(C(N)=O)cc2n1C)CCC(c1ccccc1)O3` (centres unmarked) [Example 3, 2,3-Dimethyl-8-phenyl-3,6,7,8tetrahydro-chromeno[7,8-d]imidazole-5-carboxylic Acid Amide] is higher in melting point: 172 to 173 °C for the first, 264 to 267 °C for the second.

First: COCCNC(=O)c1cc2c(nc(C)n2C)c2c1CCC(c1ccccc1)O2 (centres unmarked) [Example 6, 2,3-Dimethyl-8-phenyl-3,6,7,8-tetrahydro-chromeno[7,8-d]imidazole-5-carboxylic Acid (2-Methoxy-ethyl)amide]
Second: Cc1nc2c3c(c(C(=O)NCC(O)CO)cc2n1C)CCC(c1ccccc1)O3 (centres unmarked) [Example 21, 2,3-Dimethyl-8-phenyl-3,6,7,8tetrahydro-chromeno[7,8-d]imidazole-5-carboxylic Acid (2,3-Dihydroxy-propyl)amide]
The melting point of the first is lower: 254 to 256 °C for the first, 268 to 270 °C for the second.

Compared with `Cc1nc2c3c(c(C(=O)O)cc2n1C)CCC(c1ccccc1)O3` (centres unmarked) [Example 16, 2,3-Dimethyl-8-phenyl-3,6,7,8-tetrahydro-chromeno[7,8-d]imidazole-5-carboxylic Acid], `Cc1nc2c3c(c(C(=O)N4CC4)cc2n1C)CCC(c1ccccc1)O3` (centres unmarked) [Example 13, 1-Aziridin-1-yl-(2,3-dimethyl-8-phenyl-3,6,7,8-tetrahydro-chromeno[7,8-d]imidazol-5-yl)-methanone] is lower in melting point: 323 to 326 °C for the first, 201 to 204 °C for the second.

Compared with `Cc1nc2c3c(ccc2n1C)CCC(c1ccccc1)O3` (centres unmarked) [Example 36, 2,3-Dimethyl-8-phenyl-3,6,7,8-tetrahydro-chromeno[7,8-d]imidazole], `Cc1nc2c3c(c(CO)cc2n1C)CCC(c1ccccc1)O3` (centres unmarked) [Example 17, (2,3-Dimethyl-8-phenyl-3,6,7,8-tetrahydro-chromeno[7,8-d]imidazol-5-yl)methanol] is higher in melting point: 161 to 164 °C for the first, 279 to 281 °C for the second.

First: COCc1cc2c(nc(C)n2C)c2c1CCC(c1ccccc1)O2.O=C(O)C(=O)O (centres unmarked) [Example 11, 5-Methoxymethyl-2,3-dimethyl-8-phenyl-3,6,7,8-tetrahydro-chromeno[7,8-d]imidazole Oxalic Acid]
Second: COCCOCc1cc2c(nc(C)n2C)c2c1CCC(c1ccccc1)O2.O=C(O)C(=O)O (centres unmarked) [Example 12, 5-(2-Methoxy-ethoxymethyl)-2,3-dimethyl-8-phenyl-3,6,7,8-tetrahydro-chromeno[7,8-d]-imidazole Oxalic Acid]
The melting point of the first is higher: 204 to 205 °C for the first, 131 to 133 °C for the second.

Compared with `Cc1nc2c3c(c(C(=O)NN4CC4)cc2n1C)CCC(c1ccccc1)N3` (centres unmarked), `CNC(=O)c1cc2c(nc(C)n2C)c2c1CCC(c1ccccc1)N2` (centres unmarked) [Example 29, 2,3-Dimethyl-8-phenyl-6,7,8,9-tetrahydro-3H-imidazo[4,5-h]quinoline-5-carboxylic Acid Methylamide] is higher in melting point: 192 to 193 °C for the first, 259 °C for the second.

First: CCc1nc2c3c(c(C(=O)N(C)C)c(-c4ccccc4)c2n1C)CCCO3 [Example 24, 2-Ethyl-3-methyl-4-phenyl-3,6,7,8-tetrahydro-chromeno[7,8-d]imidazole-5-carboxylic Acid Dimethylamide]
Second: CN(C)C(=O)c1cc2c(nc(C3CC3)n2C)c2c1CCC(c1ccccc1)O2 (centres unmarked) [Example 10, 2-Cyclopropyl-3-methyl-8-phenyl-3,6,7,8-tetrahydro-chromeno[7,8-d]imidazole-5-carboxylic Acid Dimethylamide]
The melting point of the first is higher: 195 to 197 °C for the first, 176 to 179 °C for the second.

First: Cc1nc2c3c(c(C(=O)N4CCOCC4)cc2n1C)CCC(c1ccccc1)O3 (centres unmarked) [Example 7, 1-(2,3-Dimethyl-8-phenyl-3,6,7,8-tetrahydro-chromeno[7,8-d]imidazol-5-yl)-1-morpholin-4-yl-methanone]
Second: Cc1nc2c3c(c(C(=O)NC4CC4)cc2n1C)CCC(c1ccccc1)O3 (centres unmarked) [Example 35, 2,3-Dimethyl-8-phenyl-3,6,7,8-tetrahydro-chromeno[7,8-d]imidazole-5-carboxylic Acid Cyclopropylamide]
The melting point of the first is lower: 291 to 293 °C for the first, 312 to 313 °C for the second.

First: Cc1nc2c3c(c(C(N)=O)cc2n1C)CCC(c1ccccc1)N3 (centres unmarked) [Example 28, 2,3-Dimethyl-8-phenyl-6,7,8,9-tetrahydro-3H-imidazo[4,5-h]quinoline-5-carboxylic Acid Amide]
Second: Cc1nc2c3c(c(C(=O)O)cc2n1C)CCC(c1ccccc1)N3 (centres unmarked) [Example 26, 2,3-Dimethyl-8-phenyl-6,7,8,9-tetrahydro-3H-imidazo[4,5-h]quinoline-5-carboxylic Acid]
The melting point of the first is lower: 311 to 319 °C for the first, 325 to 326 °C for the second.

First: CN(C)C(=O)c1cc2c(nc(C(F)(F)F)n2C)c2c1CCC(c1ccccc1)O2 (centres unmarked) [Example 14, 3-Methyl-8-phenyl-2-trifluoromethyl-3,6,7,8-tetrahydro-chromeno[7,8-d]imidazole-5-carboxylic Acid Dimethylamide]
Second: CC(=O)N(C)c1cc2c(nc(C)n2C)c2c1CCC(c1ccccc1)O2 (centres unmarked) [Example 23, N-(2,3-Dimethyl-8-phenyl-3,6,7,8-tetrahydro-chromeno[7,8-d]imidazol-5-yl)-N-methyl-acetamide]
The melting point of the first is higher: 223 to 225 °C for the first, 214 to 216 °C for the second.

First: Cc1nc2c3c(c(CO)cc2n1C)CCC(c1ccccc1)N3 (centres unmarked) [Example 31, 5-Hydroxymethyl-2,3-dimethyl-8-phenyl-6,7,8,9tetrahydro-3H-imidazo[4,5-h]quinoline]
Second: CCOC(=O)c1cc2c(nc(C)n2C)c2c1CCC(c1ccccc1)N2 (centres unmarked) [Example 25, Ethyl 2,3-dimethyl-8-phenyl-6,7,8,9-tetrahydro-3H-imidazo[4,5-h]quinoline-5-carboxylate]
The melting point of the first is higher: 253 to 254 °C for the first, 185 to 186 °C for the second.

`Cc1nc2c3c(c(C(=O)N(C)C)cc2n1C)CCC(c1ccccc1)N3` (centres unmarked) [Example 2, 2,3-Dimethyl-8-phenyl-6,7,8,9-tetrahydro-3H-imidazo[4,5-h]quinoline-5-carboxylic Acid Dimethylamide] gave a melting point of 167 to 170 °C.

Test system: pentagastrin-stimulated acid secretion of the perfused rat stomach
Experiment: Testing of the secretion-inhibiting action on the perfused rat stomach
Settings: dose 1 μmol/kg i.d. (intraduodenal), perfused stomach of anesthetized female CD rat, in vivo
Excerpt: In Table A which follows, the influence of the compounds according to the invention on the pentagastrin-stimulated acid secretion of the perfused rat stomach after intraduodenal administration in vivo is shown.
The abdomen of anesthetized rats (CD rat, rat, female, 200-250 g; 1.5 g/kg l.m. urethane) was opened after trachetomy by a median upper abdominal incision and a PVC catheter was fixed transorally in the esophagus and another via the pylorus such that the ends of the tubes just projected into the gastric lumen. The catheter leading from the pylorus led outward into the right abdominal wall through a side opening.
After thorough rinsing (about 50-100 ml), warm (37° C.) physiological NaCl solution was continuously passed through the stomach (0.5 ml/min, pH 6.8-6.9; Braun-Unita 1). The pH (pH meter 632, glass electrode EA 147; φ=5 mm, Metrohm) and, by titration with a freshly prepared 0.01N NaOH solution to pH 7 (Dosimat 665 Metrohm), the secreted HCl were determined in the effluent in each case collected at an interval of 15 minutes.
The gastric secretion was stimulated by continuous infusion of 1 μg/kg (=1.65 ml/h) of i.v. pentagastrin (left femoral vein) about 30 min after the end of the operation (i.e. after determination of 2 preliminary fractions). The substances to be tested were administered intraduodenally in a 2.5 ml/kg liquid volume 60 min after the start of the continuous pentagastrin infusion.
The body temperature of the animals was kept at a constant 37.9-38° C. by infrared irradiation and heat pads (automatic, stepless control by means of a rectal temperature sensor).

In the case of `CNC(=O)c1cc2c(nc(C)n2C)c2c1CC[C@@H](c1ccccc1)N2` [32 (8S), (8S)-2,3-dimethyl-8-phenyl-6,7,8,9-tetrahydro-3H-imidazo[4,5-h]quinoline-5-carboxylic acid methylamide], the “Inhibition of acid secretion” value is reported as >50%.
For `CN(C)C(=O)c1cc2c(nc(C3CC3)n2C)c2c1CCC(c1ccccc1)O2` (centres unmarked) [Example 10, 2-Cyclopropyl-3-methyl-8-phenyl-3,6,7,8-tetrahydro-chromeno[7,8-d]imidazole-5-carboxylic Acid Dimethylamide], the “Inhibition of acid secretion” value was >50%.
In the case of `CNC(=O)c1cc2c(nc(C)n2C)c2c1CCC(c1ccccc1)N2` (centres unmarked) [Example 29, 2,3-Dimethyl-8-phenyl-6,7,8,9-tetrahydro-3H-imidazo[4,5-h]quinoline-5-carboxylic Acid Methylamide], the “Inhibition of acid secretion” value is reported as >50%.
With `CNC(=O)c1cc2c(nc(C)n2C)c2c1CCC(c1ccccc1)O2` (centres unmarked) [Example 4, 2,3-Dimethyl-8-phenyl-4,6,7,8-tetrahydro-chromeno[7,8-d] imidazole-5-carboxylic Acid Methylamide] the “Inhibition of acid secretion” value was >50%.
With `Cc1nc2c3c(c(C(=O)N(C)C)cc2n1C)CCC(c1ccccc1)O3` (centres unmarked) [Example 1, 2,3-Dimethyl-phenyl-3,6,7,8-tetrahydro-chromeno[7,8-a]imidazole-5-carboxylic Acid Dimethylamide] the “Inhibition of acid secretion” value was >50%.
For `Cc1nc2c3c(c(C(=O)N(C)C)cc2n1C)CCC(c1ccccc1)N3` (centres unmarked) [Example 2, 2,3-Dimethyl-8-phenyl-6,7,8,9-tetrahydro-3H-imidazo[4,5-h]quinoline-5-carboxylic Acid Dimethylamide], the “Inhibition of acid secretion” value was >50%.
With `Cc1nc2c3c(c(C(=O)N(C)C)cc2n1C)CC[C@@H](c1ccccc1)O3` [33 (8S), (8S)-2,3-Dimethyl-8-phenyl-3,6,7,8-tetrahydro-chromeno[7,8-d]imidazole-5-carboxylic Acid Dimethylamide] the “Inhibition of acid secretion” value was >50%.
With `Cc1nc2c3c(c(C(=O)N4CCC4)cc2n1C)CCC(c1ccccc1)O3` (centres unmarked) [Example 18, 1-Azetidin-1-yl-1-(2,3-dimethyl-8-phenyl-3,6,7,8-tetrahydro-chromeno[7,8-d]imidazol-5-yl)-methanone] the “Inhibition of acid secretion” value was >50%.
